One compound from ChEMBL document CHEMBL3525899, “Identification of the cytochrome P450 and other enzymes involved in the in vitro oxidative metabolism of a novel antidepressant, Lu AA21004” (Drug Metab Dispos, 2012) can be followed below.

One series has as its target T1, Cytochrome P450 2A6 (Homo sapiens, UniProt P11509).
T1 sequence (P11509 whole entry): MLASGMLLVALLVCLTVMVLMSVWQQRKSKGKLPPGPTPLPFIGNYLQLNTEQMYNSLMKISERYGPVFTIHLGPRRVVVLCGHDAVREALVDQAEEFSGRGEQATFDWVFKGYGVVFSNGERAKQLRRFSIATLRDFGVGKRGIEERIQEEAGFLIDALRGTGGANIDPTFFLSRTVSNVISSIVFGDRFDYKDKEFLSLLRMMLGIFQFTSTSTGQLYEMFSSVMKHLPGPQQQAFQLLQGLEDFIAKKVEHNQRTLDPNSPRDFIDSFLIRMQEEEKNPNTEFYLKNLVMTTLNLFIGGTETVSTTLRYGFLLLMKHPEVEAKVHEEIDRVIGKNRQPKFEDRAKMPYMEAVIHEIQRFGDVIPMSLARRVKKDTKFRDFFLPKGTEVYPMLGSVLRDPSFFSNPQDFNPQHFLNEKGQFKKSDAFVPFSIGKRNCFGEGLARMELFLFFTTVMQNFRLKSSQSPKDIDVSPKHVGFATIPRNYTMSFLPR
As to the kind of experiment: Activity of human recombinant CYP2A6 expressed in microsomes isolated from human AHH-1 cells assessed as enzyme-mediated 3-(2,4-dimethylphenylthio)-4-(piperazin-1-yl)phenol formation at 8 to 50 uM after 120 mins by HPLC/MS-MS analysis in presence of NADPH regenerating system with NADP+. Format: ADME, cell-free. The following applies: 2 h.

A further series addresses T2, Cytochrome P450 2C8 (Homo sapiens, UniProt P10632).
T2 sequence (P10632 whole entry): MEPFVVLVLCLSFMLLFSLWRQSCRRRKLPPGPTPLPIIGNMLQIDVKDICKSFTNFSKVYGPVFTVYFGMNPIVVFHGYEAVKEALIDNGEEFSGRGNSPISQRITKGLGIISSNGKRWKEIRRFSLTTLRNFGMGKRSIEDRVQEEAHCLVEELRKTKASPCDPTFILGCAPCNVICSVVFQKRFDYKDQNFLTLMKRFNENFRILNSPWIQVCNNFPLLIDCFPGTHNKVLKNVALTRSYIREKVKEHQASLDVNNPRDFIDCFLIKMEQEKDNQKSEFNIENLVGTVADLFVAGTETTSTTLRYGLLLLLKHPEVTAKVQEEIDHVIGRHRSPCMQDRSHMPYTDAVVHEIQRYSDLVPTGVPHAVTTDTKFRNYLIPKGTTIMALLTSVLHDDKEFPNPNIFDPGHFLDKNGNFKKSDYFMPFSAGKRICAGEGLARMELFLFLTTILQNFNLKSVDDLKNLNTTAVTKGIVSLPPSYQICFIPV
As to the kind of experiment: Activity of human recombinant CYP2C8 expressed in microsomes isolated from human AHH-1 cells assessed as enzyme-mediated 1-(2-(2,4-dimethylphenylsulfinyl)phenyl)piperazine formation at 8 to 50 uM after 120 mins by HPLC/MS-MS analysis in presence of NADPH regenerating system with NADP+. The conditions noted are these: 2 h. Format: ADME, cell-free.

The subject of series [1] is Liver microsome. As to the kind of experiment: Drug metabolism in pooled human liver microsomes assessed as formation of 1-(2-(2,4-dimethylphenylsulfinyl)phenyl)piperazine per mg of protein after 30 mins by Michaelis-Menten plot analysis in presence of NADPH regenerating system with NADP+. Format: ADME. The conditions noted are these: 0.5 h. Background: Microsomes from liver hold many membrane-bound enzymes, among them those of drug oxidation.

Series [2] concerns Liver microsome. As to the kind of experiment: Drug metabolism in pooled human liver microsomes assessed as formation of 3-methyl-4-(2-(piperazin-1-yl)phenylthio)benzoic acid at 100 uM after 30 to 180 mins by HPLC/MS-MS analysis in presence of NADPH regenerating system with NADP+. Format: ADME.
Series [3] has as its system Liver microsome. Put plainly: Drug metabolism in pooled human liver microsomes assessed as formation of (3-methyl-4-(2-(piperazin-1-yl)phenylthio)phenyl)methanol at 100 uM after 30 to 180 mins by HPLC/MS-MS analysis in presence of NADPH regenerating system with NADP+. The series is classed as ADME.
The target of a further series is T3, Cytochrome P450 2B6 (Homo sapiens, UniProt P20813).
T3 sequence (P20813 whole entry): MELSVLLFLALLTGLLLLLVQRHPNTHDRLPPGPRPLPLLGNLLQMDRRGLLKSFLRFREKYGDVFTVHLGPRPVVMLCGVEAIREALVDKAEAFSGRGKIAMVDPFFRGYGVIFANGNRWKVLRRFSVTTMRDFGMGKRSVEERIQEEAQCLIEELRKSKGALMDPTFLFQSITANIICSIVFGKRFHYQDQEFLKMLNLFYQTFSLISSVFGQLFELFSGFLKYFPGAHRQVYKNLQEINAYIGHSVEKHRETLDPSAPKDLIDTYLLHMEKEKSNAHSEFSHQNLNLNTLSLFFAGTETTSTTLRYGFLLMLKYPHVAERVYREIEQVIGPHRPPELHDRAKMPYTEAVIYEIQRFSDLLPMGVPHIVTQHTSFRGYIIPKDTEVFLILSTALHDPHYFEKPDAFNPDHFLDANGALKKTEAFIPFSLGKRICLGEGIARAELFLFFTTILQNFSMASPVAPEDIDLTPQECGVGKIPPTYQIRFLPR
Put plainly: Activity of human recombinant CYP2B6 expressed in microsomes isolated from human AHH-1 cells assessed as enzyme-mediated 3-(2,4-dimethylphenylthio)-4-(piperazin-1-yl)phenol formation at 8 to 50 uM after 120 mins by HPLC/MS-MS analysis in presence of NADPH regenerating system with NADP+. The conditions noted are these: 2 h. Format: ADME, cell-free.

For a further series, the target named is Cytochrome P450 2C19 (Homo sapiens, UniProt P33261). Put plainly: Activity of human recombinant CYP2C19 expressed in microsomes isolated from human AHH-1 cells assessed as enzyme-mediated 4-(2-(2,4-dimethylphenylthio)phenyl)piperazin-1-ol formation at 8 to 50 uM after 120 mins by HPLC/MS-MS analysis in presence of NADPH regenerating system with NADP+. Format: ADME, cell-free. The conditions noted are these: 2 h.
Sequence of Cytochrome P450 2C19 (P33261 whole entry): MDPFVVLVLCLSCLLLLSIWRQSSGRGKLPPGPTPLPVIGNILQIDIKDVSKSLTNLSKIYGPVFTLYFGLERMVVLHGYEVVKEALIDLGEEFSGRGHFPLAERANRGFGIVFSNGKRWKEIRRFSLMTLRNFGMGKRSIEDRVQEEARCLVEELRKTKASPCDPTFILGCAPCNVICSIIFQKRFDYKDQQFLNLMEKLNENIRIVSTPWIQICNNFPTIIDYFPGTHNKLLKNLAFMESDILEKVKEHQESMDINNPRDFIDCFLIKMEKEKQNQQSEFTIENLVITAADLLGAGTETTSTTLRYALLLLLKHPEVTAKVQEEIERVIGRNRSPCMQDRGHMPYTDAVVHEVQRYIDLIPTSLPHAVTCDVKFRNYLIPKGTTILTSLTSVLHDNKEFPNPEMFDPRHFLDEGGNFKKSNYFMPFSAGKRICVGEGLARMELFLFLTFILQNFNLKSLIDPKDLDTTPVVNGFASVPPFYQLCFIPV

Series [4] addresses T4, Flavin-containing monooxygenase 3 (Homo sapiens, UniProt P31513).
T4 sequence (P31513 whole entry): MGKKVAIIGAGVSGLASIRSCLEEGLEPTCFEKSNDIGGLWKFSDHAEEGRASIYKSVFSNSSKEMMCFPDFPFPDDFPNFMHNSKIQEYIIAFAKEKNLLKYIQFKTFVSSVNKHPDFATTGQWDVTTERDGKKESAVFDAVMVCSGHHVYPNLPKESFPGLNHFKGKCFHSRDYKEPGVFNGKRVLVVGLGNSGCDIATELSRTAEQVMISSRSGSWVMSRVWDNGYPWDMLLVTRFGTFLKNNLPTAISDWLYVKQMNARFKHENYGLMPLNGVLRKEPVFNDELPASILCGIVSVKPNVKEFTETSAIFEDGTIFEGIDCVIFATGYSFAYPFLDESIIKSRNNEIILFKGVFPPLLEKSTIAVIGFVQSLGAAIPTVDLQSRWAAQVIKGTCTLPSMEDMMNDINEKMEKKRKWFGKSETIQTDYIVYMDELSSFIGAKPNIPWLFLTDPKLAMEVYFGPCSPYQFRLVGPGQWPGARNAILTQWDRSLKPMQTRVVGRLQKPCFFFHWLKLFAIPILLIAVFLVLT
As to the kind of experiment: Activity of human recombinant FMO3 expressed in microsomes isolated from baculovirus infected insect BTI-TN-5B1-4 cells assessed as enzyme-mediated 1-(2-(2,4-dimethylphenylsulfinyl)phenyl)piperazine formation at 8 to 50 uM after 120 mins by HPLC/MS-MS analysis in presence of NADPH regenerating system with NADP+. The following applies: 2 h. Format: ADME.

Turning to `Br.Cc1ccc(Sc2ccccc2N2CCNCC2)c(C)c1` [VORTIOXETINE HYDROBROMIDE], the Drug metabolism entry is “metabolite_not_detected” on Cytochrome P450 2A6; “metabolite_detected” at Cytochrome P450 2C8; “metabolite_detected” in the series with Liver microsome [2]; “metabolite_detected” in the series on Liver microsome [3]; “metabolite_not_detected” at Cytochrome P450 2B6; “metabolite_detected” at Cytochrome P450 2C19. The Drug metabolism result in series [4] is listed as “metabolite_not_detected”. For the same compound, the “Vmax(app)” value with Liver microsome [1] was “>= 227 pmol/min”.
